Measured values reported in patent US20040191168A1, “Tumor cell killing by cell cycle checkpoint abrogation combined with Inhibition of the classical mitogen activated protein (map) kinase pathway” (priority 2000, published 2004).

How the values were obtained:
MDA-MB-231 cells = test: TUNEL apoptosis in MDA-MB-231 cells; format: cell-based, human; details: MDA-MB-231, 24 h; with 150 nM UCN-01; PD184352 10 μM, U0126 5 μM; FIG. 8A
Excerpt: Terminal Uridyl-Nucleotide End Labeling (TUNEL) for apoptosis.

MCF7 cells = details: MCF7, 24 h; with 150 nM UCN-01; PD184352 10 μM, U0126 5 μM; FIG. 8B
Procedure: Terminal Uridyl-Nucleotide End Labeling (TUNEL) for apoptosis. […] Cells were isolated 24 h after irradiation by trypsinizationi followed by centrifugation onto glass slides (cytospin). Terminal Uridyl-Nucleotide End Labeling (TUNEL) was performed on these cells as described previously [Wang et al., 1999; Park et al., 1999]. Randomly selected fields of fixed cells (150 cells per field, n=5 per slide) were counted initially using propidium iodide counter stain, followed by examination and counting of TUNEL positive staining cells of the same field under FITC/fluorescence light.

[1] = Phase I and pharmacokinetic studies (Fuse et al., 1999); cited from earlier work

SMILES	apoptosis in combination with UCN-01 (MDA-MB-231 cells)	apoptosis in combination with UCN-01 (MCF7 cells)	plasma half-life [1]
O=C(NOCC1CC1)c1ccc(F)c(F)c1Nc1ccc(I)cc1Cl [PD184352]	enhanced apoptosis	enhanced apoptosis	–
CN[C@@H]1C[C@H]2O[C@@](C)([C@@H]1OC)n1c3ccccc3c3c4c(c5c6ccccc6n2c5c31)C(=O)N[C@H]4O [UCN-01, 7-hydroxystaurosporine]	–	–	very long plasma half-life
